The text below walks through data of ChEMBL document CHEMBL3286148, “Aminoazabenzimidazoles, a novel class of orally active antimalarial agents” (J Med Chem, 2014).

Each structure is given as a SMILES string. ≈ marks a conversion by molar mass, not a printed value. Calls of active or inactive are those of the source. The rule behind the calls is not given here.

The term IC50 denotes the concentration that inhibits the measured activity by half. Low readings indicate greater potency in that assay, high ones weaker potency in that assay. Broadly, the solubility is the dissolved amount per volume that the medium holds. In general, logD refers to the decadic logarithm of the distribution of all forms, ionised or not, between an organic phase and buffer at a given pH. Read a high logD as higher lipophilicity. The fraction unbound is the share of the substance not bound to proteins or other matrix. A low value points to extensive binding.

For data set [1], the system named is Plasmodium falciparum. Description: Antiplasmodial activity against Plasmodium falciparum Dd2. The format is functional, organism-based.
For data set [2], the system named is Plasmodium falciparum. In words: Antiplasmodial activity against Plasmodium falciparum Dd2 harboring DHODH mutant. The data set is classed as functional, organism-based.
In data set [3] the test system is Plasmodium falciparum. In words: Antiplasmodial activity against Plasmodium falciparum Dd2 harboring HSP90 mutant. The data set is classed as functional, organism-based.
Data set [4] has as its system Plasmodium falciparum. Description: Antiplasmodial activity against Plasmodium falciparum Dd2 harboring CRT mutant. The format is functional, organism-based.
Data set [5] has as its system Plasmodium falciparum. Description: Antiplasmodial activity against Plasmodium falciparum Dd2 harboring CYTb-Qi mutant. The data set is classed as functional, organism-based.
The next data set has as its system Plasmodium berghei. In words: Antiplasmodial activity against Plasmodium berghei ANKA expressing GFP infected in BALB/c mouse assessed as host survival days at 30 mg/kg, po qd for 4 days. The data set is classed as functional.
Data set [6] concerns Plasmodium falciparum. Description: Antiplasmodial activity against chloroquine and pyrimethamine-sensitive Plasmodium falciparum 3D7A assessed as parasite reduction ratio at 10 times IC50 after 48 hrs. The format is functional, organism-based.
Data set [7] in a line: Selectivity index, ratio of IC50 for human A549 cells to IC50 for Plasmodium falciparum. The data set is classed as toxicity, cell-based. To be noted: read-out: Ratio IC50.
Data set [8] deals with Voltage-gated inwardly rectifying potassium channel KCNH2 (Homo sapiens, UniProt Q12809). Description: Inhibition of human ERG.
Voltage-gated inwardly rectifying potassium channel KCNH2, sequence (Q12809 whole entry): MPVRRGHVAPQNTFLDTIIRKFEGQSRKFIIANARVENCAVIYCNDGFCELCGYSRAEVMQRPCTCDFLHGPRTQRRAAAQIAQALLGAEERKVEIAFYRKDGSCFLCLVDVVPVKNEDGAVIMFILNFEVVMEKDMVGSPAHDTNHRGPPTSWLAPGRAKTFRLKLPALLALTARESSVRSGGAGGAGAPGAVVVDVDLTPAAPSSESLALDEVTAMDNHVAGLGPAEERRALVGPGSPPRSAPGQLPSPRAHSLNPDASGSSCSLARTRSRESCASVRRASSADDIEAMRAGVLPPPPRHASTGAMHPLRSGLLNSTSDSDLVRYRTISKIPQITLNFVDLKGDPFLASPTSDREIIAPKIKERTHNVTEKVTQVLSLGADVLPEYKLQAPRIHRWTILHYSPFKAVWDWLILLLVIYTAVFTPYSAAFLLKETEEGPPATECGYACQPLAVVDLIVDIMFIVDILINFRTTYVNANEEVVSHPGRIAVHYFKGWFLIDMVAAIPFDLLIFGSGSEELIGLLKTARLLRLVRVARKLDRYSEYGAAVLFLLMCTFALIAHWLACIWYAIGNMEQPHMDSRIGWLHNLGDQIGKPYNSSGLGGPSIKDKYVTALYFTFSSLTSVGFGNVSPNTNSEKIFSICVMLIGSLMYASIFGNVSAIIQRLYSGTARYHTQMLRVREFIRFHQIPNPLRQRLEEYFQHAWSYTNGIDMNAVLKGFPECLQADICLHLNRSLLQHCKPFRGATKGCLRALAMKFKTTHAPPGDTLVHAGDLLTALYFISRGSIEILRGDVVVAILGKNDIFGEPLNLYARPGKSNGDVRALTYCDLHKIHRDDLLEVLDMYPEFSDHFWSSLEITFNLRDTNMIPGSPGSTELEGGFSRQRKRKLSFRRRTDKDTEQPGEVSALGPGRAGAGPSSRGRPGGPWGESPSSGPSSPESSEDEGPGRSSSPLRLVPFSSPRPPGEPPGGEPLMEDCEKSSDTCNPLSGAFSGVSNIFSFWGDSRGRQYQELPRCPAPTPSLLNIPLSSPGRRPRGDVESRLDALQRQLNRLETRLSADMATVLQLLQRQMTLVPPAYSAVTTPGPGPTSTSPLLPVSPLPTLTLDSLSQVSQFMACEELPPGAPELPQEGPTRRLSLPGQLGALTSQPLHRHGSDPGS
Data set [9] is described as follows: Clearance in rat hepatocytes assessed per 1E6 cells. The data set is classed as ADME, cell-based, Hepatocyte. To be noted: read-out: CLH.
A short description of data set [10]: Clearance in human liver microsomes. The format is ADME. To be noted: read-out: CLH.
Data set [11] in a line: Clearance in mouse liver microsomes. The data set is classed as ADME. To be noted: read-out: CLH. (In general: Liver microsomes are vesicles of endoplasmic reticulum, rich in cytochrome P450 enzymes.)
The subject of data set [12] is Plasmodium falciparum. Description: microbe, parasite or virus in culture. To be noted: 7G8, 72 h.
Description: Antiplasmodial activity against Plasmodium falciparum 7G8 after 72 hrs by SYBR I method
The test system of data set [13] is Plasmodium falciparum. In words: microbe, parasite or virus in culture. To be noted: W2, 72 h.
Description: Antiplasmodial activity against Plasmodium falciparum W2 after 72 hrs by SYBR I method
The subject of data set [14] is Plasmodium falciparum. Description: microbe, parasite or virus in culture. Particulars: SB1, 72 h.
Description: Antiplasmodial activity against Plasmodium falciparum SB1 after 72 hrs by SYBR I method
For data set [15], the system named is Plasmodium falciparum. In words: microbe, parasite or virus in culture. To be noted: Dd2, 72 h.
Description: Antiplasmodial activity against Plasmodium falciparum Dd2 after 72 hrs by SYBR I method
For data set [16], the system named is Plasmodium falciparum. In words: microbe, parasite or virus in culture. Particulars: NF54, 72 h.
Data set [17] has as its system Plasmodium falciparum. Description: microbe, parasite or virus in culture. To be noted: K1, 72 h.
The nature of data set [18]: Aqueous solubility of the compound. Particulars: buffer. The data set is classed as physicochemical.
Data set [19] in a line: Lipophilicity, log D of the compound. Particulars: octanol/water. The format is physicochemical.
A short description of data set [20]: Fraction unbound in human plasma. The format is ADME, cell-free.
For a further data set, the target named is Cytochrome P450 3A4 (Homo sapiens, UniProt P08684). In words: Inhibition of CYP3A4 (unknown origin). The format is ADME.
Cytochrome P450 3A4, sequence (P08684 whole entry): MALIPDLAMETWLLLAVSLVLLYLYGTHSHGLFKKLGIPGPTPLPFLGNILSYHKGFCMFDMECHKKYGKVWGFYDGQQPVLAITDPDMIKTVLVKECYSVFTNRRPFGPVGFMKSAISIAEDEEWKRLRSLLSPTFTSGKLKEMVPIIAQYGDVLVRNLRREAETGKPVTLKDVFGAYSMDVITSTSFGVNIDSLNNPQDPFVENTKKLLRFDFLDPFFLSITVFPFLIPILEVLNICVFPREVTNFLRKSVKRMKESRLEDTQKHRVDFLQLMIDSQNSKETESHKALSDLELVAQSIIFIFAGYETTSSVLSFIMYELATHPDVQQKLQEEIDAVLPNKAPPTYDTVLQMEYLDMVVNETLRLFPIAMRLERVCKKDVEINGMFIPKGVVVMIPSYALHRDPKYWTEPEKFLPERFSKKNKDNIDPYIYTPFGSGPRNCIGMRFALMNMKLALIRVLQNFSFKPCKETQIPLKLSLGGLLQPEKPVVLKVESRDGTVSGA
The target in a further data set is Cytochrome P450 2D6 (Homo sapiens, UniProt P10635). Description: Inhibition of CYP2D6 (unknown origin). The data set is classed as ADME.
Cytochrome P450 2D6, sequence (P10635 whole entry): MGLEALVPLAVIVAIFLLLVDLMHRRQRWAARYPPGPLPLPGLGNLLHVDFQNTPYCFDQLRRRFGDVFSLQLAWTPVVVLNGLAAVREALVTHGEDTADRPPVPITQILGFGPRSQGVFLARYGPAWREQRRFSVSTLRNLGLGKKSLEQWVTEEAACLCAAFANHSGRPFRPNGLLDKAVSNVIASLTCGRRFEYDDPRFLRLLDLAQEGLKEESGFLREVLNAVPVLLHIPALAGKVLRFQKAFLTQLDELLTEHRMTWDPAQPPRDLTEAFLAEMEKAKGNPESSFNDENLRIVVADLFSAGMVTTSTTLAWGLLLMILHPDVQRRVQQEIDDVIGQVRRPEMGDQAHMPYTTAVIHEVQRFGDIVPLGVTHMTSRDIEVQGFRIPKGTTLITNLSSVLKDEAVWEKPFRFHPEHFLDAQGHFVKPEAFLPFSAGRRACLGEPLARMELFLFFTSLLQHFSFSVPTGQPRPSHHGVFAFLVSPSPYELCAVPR
The target in a further data set is Cytochrome P450 2C9 (Homo sapiens, UniProt P11712). Description: Inhibition of CYP2C9 (unknown origin). The data set is classed as ADME.
Cytochrome P450 2C9, sequence (P11712 whole entry): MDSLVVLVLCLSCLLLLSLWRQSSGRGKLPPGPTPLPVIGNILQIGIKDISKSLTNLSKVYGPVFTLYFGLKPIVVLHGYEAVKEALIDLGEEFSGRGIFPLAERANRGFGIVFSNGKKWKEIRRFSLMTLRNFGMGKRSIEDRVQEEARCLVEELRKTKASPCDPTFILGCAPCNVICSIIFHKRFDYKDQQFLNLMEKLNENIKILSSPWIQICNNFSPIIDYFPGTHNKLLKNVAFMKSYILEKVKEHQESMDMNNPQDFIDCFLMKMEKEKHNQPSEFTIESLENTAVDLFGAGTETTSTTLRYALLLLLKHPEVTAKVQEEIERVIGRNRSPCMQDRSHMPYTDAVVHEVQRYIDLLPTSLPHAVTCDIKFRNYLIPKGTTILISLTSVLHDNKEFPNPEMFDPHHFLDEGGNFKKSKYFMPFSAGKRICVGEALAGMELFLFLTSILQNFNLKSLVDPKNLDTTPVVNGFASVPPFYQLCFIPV
The target in a further data set is Cytochrome P450 2C19 (Homo sapiens, UniProt P33261). In words: Inhibition of CYP2C19 (unknown origin). The format is ADME.
Cytochrome P450 2C19, sequence (P33261 whole entry): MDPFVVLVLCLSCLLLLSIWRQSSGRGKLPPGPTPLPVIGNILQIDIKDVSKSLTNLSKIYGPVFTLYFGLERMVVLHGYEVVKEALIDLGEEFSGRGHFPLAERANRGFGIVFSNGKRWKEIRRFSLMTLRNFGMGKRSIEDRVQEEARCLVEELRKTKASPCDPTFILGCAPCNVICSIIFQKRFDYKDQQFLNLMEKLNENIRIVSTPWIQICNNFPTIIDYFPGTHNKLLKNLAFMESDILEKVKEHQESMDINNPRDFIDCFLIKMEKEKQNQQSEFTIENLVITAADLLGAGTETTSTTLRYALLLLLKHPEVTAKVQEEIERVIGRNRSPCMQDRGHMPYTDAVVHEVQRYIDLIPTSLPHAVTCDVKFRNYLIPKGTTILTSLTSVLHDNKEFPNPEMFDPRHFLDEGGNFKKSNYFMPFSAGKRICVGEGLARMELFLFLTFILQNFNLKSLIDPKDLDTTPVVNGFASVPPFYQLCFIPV
The next data set concerns the target T1, Cytochrome P450 1A2 (Homo sapiens, UniProt P05177).
T1 sequence (P05177 whole entry): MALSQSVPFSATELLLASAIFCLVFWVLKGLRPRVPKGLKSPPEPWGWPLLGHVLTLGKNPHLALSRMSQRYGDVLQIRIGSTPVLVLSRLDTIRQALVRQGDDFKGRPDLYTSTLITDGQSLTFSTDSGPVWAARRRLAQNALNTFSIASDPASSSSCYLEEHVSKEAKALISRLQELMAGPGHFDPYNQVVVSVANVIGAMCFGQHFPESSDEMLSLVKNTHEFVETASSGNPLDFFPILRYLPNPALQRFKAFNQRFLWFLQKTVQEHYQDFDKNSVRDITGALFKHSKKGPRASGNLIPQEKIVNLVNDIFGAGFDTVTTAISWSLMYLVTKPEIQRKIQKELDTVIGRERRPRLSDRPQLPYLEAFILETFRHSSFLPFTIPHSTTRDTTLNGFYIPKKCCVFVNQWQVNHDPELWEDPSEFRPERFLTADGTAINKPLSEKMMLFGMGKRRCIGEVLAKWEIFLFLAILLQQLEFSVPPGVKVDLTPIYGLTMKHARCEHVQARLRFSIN
Description: Inhibition of CYP1A2 (unknown origin). The format is ADME.

In the case of `CN1CCN(C(=O)c2ccc3c(c2)N(Cc2c(F)cccc2Cl)C(=O)c2ccccc2S3)CC1`, the IC50 in the data set on Plasmodium falciparum [1] was 7.3 nM; in the data set with Plasmodium falciparum [2], 16.9 nM; with Plasmodium falciparum [3] it was 8.42 nM; with Plasmodium falciparum [4] it was 1040 nM; in the data set on Plasmodium falciparum [5], 3.16 nM.
As to `Cc1nc2c(C#N)cccc2n1-c1ccc(C(=O)NC2CC2)s1`, the IC50 turned out to be 5.79 nM in the data set with Plasmodium falciparum [1]; 76.8 nM with Plasmodium falciparum [2]; 16.2 nM in the data set on Plasmodium falciparum [3]; 5.07 nM in the data set on Plasmodium falciparum [4]; 9.94 nM in the data set on Plasmodium falciparum [5].
Take `CCN(CC)CCCC(C)Nc1ccnc2cc(Cl)ccc12` (centres undefined) [CHLOROQUINE]: in the data set on Plasmodium berghei, the Survival stood at 27 days.
Take `Nc1nc2ccc(OCC(F)(F)F)nc2n1CC(O)c1ccc(C(F)(F)F)cc1Cl` (racemic): the IC50 in the data set with Plasmodium falciparum [1] is 24.6 nM; in the data set with Plasmodium falciparum [2], 19.7 nM; with Plasmodium falciparum [3], 34.1 nM; in the data set with Plasmodium falciparum [4], 16.4 nM; with Plasmodium falciparum [5] it was 11.8 nM; in data set [8], greater than 33300 nM. Also, the concentration for half-maximal inhibition (IC50) with Plasmodium falciparum [12] was found to be 12 nM; with Plasmodium falciparum [13] it was 62 nM; in the data set with Plasmodium falciparum [14], 178 nM; in the data set with Plasmodium falciparum [15] it was 135 nM; with Plasmodium falciparum [16], 43 nM; in the data set on Plasmodium falciparum [17], 10 nM. Moreover, the outcome in the data set on Plasmodium falciparum [6] was Active. Moreover, the selectivity ratio in [7] was found to be 232. Besides, the hepatocyte CLint in data set [9] was 36 µL/min/1e6 cells. Also, the microsomal CLint in data set [10] was determined as 45 µL/min/mg; in data set [11] it was 21 µL/min/mg.
`CN1CCN(c2ccc3nc(N)n(CC(O)c4ccc(C(F)(F)F)cc4Cl)c3n2)CC1` (racemic): the selectivity ratio in [7] was determined as 348. The concentration for half-maximal inhibition (IC50) is 12200 nM in data set [8]; 14100 nM against Cytochrome P450 3A4; 27900 nM at Cytochrome P450 2D6; greater than 30000 nM against Cytochrome P450 2C9; 5000 nM at Cytochrome P450 2C19; greater than 30000 nM on Cytochrome P450 1A2. Further, the half-inhibitory concentration (IC50) with Plasmodium falciparum [12] came out at 37.9 nM; in the data set with Plasmodium falciparum [13], 156 nM; in the data set on Plasmodium falciparum [14], 220 nM; in the data set with Plasmodium falciparum [15] it was 370 nM; in the data set on Plasmodium falciparum [16], 89 nM; in the data set on Plasmodium falciparum [17], 85 nM. Besides, the hepatocyte CLint in [9] was 106 µL/min/1e6 cells. Also, the microsomal CLint in data set [10] came to 21 µL/min/mg; in [11], 102 µL/min/mg. The compound also gave a solubility in data set [18] of 118 µM (≈ 53.7 µg/mL). This compound registered a log distribution coefficient (logD) in [19] of 2.8. In data set [20], this compound had a fraction unbound of 0.234.
On to `C[C@@H]1CC[C@H]2[C@@H](C)C(=O)O[C@@H]3O[C@@]4(C)CC[C@@H]1[C@]32OO4` [ARTEMISININ], for which the IC50 in the data set on Plasmodium falciparum [1] worked out at 1.51 nM; in the data set with Plasmodium falciparum [2], 1.81 nM; in the data set on Plasmodium falciparum [3], 1.29 nM; with Plasmodium falciparum [4] it was 1.84 nM; with Plasmodium falciparum [5], 1.26 nM; in the data set with Plasmodium falciparum [12] it was 1.3 nM. In addition, the IC50 with Plasmodium falciparum [13] amounted to 6.52 nM; in the data set with Plasmodium falciparum [14], 16.6 nM; in the data set with Plasmodium falciparum [15] it was 10.3 nM; in the data set on Plasmodium falciparum [16], 7.05 nM; with Plasmodium falciparum [17] it was 6.47 nM.
As for `Nc1nc2ccc(OC3CCOC3)nc2n1CC(O)c1ccc(C(F)(F)F)cc1Cl` (racemic), the outcome in the data set on Plasmodium falciparum [6] was Active. The selectivity ratio in data set [7] is 800. Moreover, the half-maximal inhibitory concentration (IC50) in data set [8] is 16600 nM; against Cytochrome P450 3A4 it was 2400 nM; on Cytochrome P450 2D6, 12500 nM; against Cytochrome P450 2C9 it was greater than 30000 nM; on Cytochrome P450 2C19 it was 780 nM; on Cytochrome P450 1A2 it was greater than 30000 nM. For the same compound, the IC50 amounted to 25 nM in the data set on Plasmodium falciparum [16] and 18 nM in the data set with Plasmodium falciparum [17]. In data set [9], the hepatocyte CLint was determined as 105 µL/min/1e6 cells. Further, the microsomal CLint in [10] was determined as 76 µL/min/mg; in data set [11], 90 µL/min/mg. Also, the solubility in data set [18] was found to be 160 µM (≈ 70.9 µg/mL). This compound also gave a logD in data set [19] of 3.7. Moreover, in data set [20], the fraction unbound was 0.026.
